“Also recorded” adds a separate entry of the source.
Experiment: Ex vivo skin permeation experiment
Type: in vitro ADME
Conditions: human donor skin
Description: Human donor skin was placed between upper and lower compartments. The lower compartment was filled with receiver fluid. Various rapamycin compositions were applied on the surface of the skin facing the upper compartment (11 formulations (i.e., O3, NA21, NA22, NA21, NA17, TD201, NA19, NA25, AG14, NA26 and NA24), n=6 replicates, dosage 10 mg/cm^2) and left for 24 hrs. A positive displacement pipette was used to apply the formulation (˜10 mg/cm2) to the plunger of a 1 mL syringe. The formulation (10+/−0.5 mg) was applied to the skin surface and spread over the diffusion area using the plunger. Prior to and after the application the weight of the plunger was recorded, from which the dose per cell was calculated.
Following the time period, the excess rapamycin compositions were wiped from the skin surface and the skin layers were separated into stratum corneum, epidermis, and dermis. The Stratum corneum was removed from the human skin using a tape stripping procedure. The epidermis was separated from the dermis by dry heating at 60° C. for 2 min. Rapamycin was extracted from each layer by 90:10 v/v ethanol: water solvent mixture, and quantified. The receiver fluid in the lower compartment was also analyzed for the presence of rapamycin.

## CO[C@H]1C[C@@H]2CC[C@@H](C)[C@@](O)(O2)C(=O)C(=O)N2CCCC[C@H]2C(=O)O[C@H]([C@H](C)C[C@@H]2CC[C@@H](O)[C@H](OC)C2)CC(=O)[C@H](C)/C=C(\C)[C@@H](O)[C@@H](OC)C(=O)[C@H](C)C[C@H](C)/C=C/C=C/C=C/1C [rapamycin]
10 mg/cm^2, 24 hrs
  distribution of rapamycin over skin surface, stratum corneum, epidermis and dermis: greatest amount of rapamycin was found on the surface of the skin; also recorded: more of the drug residing in the epidermis than either the stratum corneum or dermal layer; also recorded: increase in the amount of rapamycin quantified in both the epidermis and dermis
10 mg/cm^2, any time point across the experimental period (24 hrs)
  rapamycin in the receiver fluid: not detected
